From patent US6649797B2, “Compounds and methods of use to treat infectious diseases” (The Picower Institute for Medical Research, priority 1996, dated 2003)

Target: T1, MA associated with the HIV-1 pre-integration complex (Human immunodeficiency virus type 1 group M subtype B, UniProt P05890+P05959)
T1 construct: MA is made from the Gag precursor and RT is made from the Gag-Pol precursor; endogenous in cells; host or cells: cytoplasmic extract of H9 cells infected with HIV-1RF
Assay: Reaction of [14C]CNI-H0294 with MA in HIV-1 pre-integration complexes after borohydride reduction
Type: binding
Conditions: 10 μM [14C]-CNI-H0294, borohydride reduction, HIV-1-infected cell extracts
Experimental: Cytoplasmic extracts from HIV-1RF-infected H9 cells were treated with [^14C]CNI-H0294 (10 μM). After borohydride reduction the extracts were immunoprecipitated with anti-MA (αMA), anti-IN (αIN), or pre-immune serum (PI). […] Immunoprecipitated radioactivity was quantified in a scintillation counter.
Cytoplasmic lysates prepared from HIV-1-infected cells were treated with 10 μM of [^14C]-labeled CNI-H0294 (specific activity 5×10^4 cpm/nmol) in 1 ml extraction buffer adjusted to 0.14 M NaCl. Sodium borohydride was then added to a final concentration 10 mM and samples were incubated 1 hr at room temperature prior to immunoprecipitation to reduce double bonds of Schiff bases to an irreversible secondary amine. Immunoprecipitation was performed as described above, but beads were stringently washed three times with PBS supplemented with 0.1% SDS, 1% sodium deoxycholate, 1 μg/ml each of aprotinin and leupeptin, and 1 mM PMSF.
To discriminate between these two possibilities, cytoplasmic extracts of HIV-1-infected cells were treated with [^14C]-CNI-H0294 and then with sodium borohydride, to reduce the reversible Schiff bases hypothesized to form between the compound and the lysines of MA NLS and convert the attached drug molecules to irreversible adducts. […] Without borohydride treatment, no radioactivity was immunoprecipitated with MA.

CC(=O)c1cc(Nc2cc(C)[n+](C)c(N)n2)cc(C(C)=O)c1 [CNI-0294, 2-Amino-4-(3,5-diacetylphenyl)amino-1,6-dimethylpyrimidinium chloride]
radioactivity immunoprecipitated by anti-MA serum: a significant amount of radioactivity was immunoprecipitated by anti-MA serum
